From patent publication US5359135A, “Triasulfurone compounds” (priority 1990, dated 1994) come the findings set out here.

What all share (format): binding, mouse (Balb/c)
Holding throughout (settings): for Cross-reactivity: (triasulfurone conc. for 50% inhibition/analog conc. for 50% inhibition) × 100

Assay [1] concerns MAb 4134-40-1. Briefly: competitive ELISA, triasulfurone and analogs with MAb 4134-40-1 (Table 1). An excerpt:
(§1) As defined within the context of this invention, the percentage of cross-reactivity is represented by the following equation: [triasulfurone concentration for 50% inhibition (I50)/concentration of the triasulfurone analogs for 50% inhibition (I50)]×100.
(§2) The I50 value can be determined, for example, by means of a competitive ELISA assay (see Example 8). In that case the I50 value corresponds, for example, to the antigen concentration that leads to a 50% inhibition of the binding of the antibody to the carrier-bound antigen.
(§3) The detection of triasulfurone is effected by means of a two-step competitive ELISA test.
(§4) BSA-conjugated hapten, prepared in accordance with Example 1.3.1 or 1.3.2, in a 50mM sodium carbonate buffer (pH 9.6) (200 ng of BSA-conjugated hapten/100 μl of sodium carbonate buffer) is first of all adsorbed on microtitre plates (for example Dynatech, type M 129A) and incubated overnight at a temperature of 4° C. The plates are then washed five times with PBS buffer enriched with 0.1% (v/v) polysorbate 20 (Tween 20) (PBS Tween).
(§5) The remaining free binding sites of the solid carder material are then blocked by the addition of PBS-BSA in the form of a 1% (w/v) solution. After incubation for two hours at 22° C. the plates are washed again with PBS Tween (0.1%).
(§6) 50 μl of the supernatant of the previously cloned hybridoma cells (in a dilution of 1:2000 or 1:4000) or 50 μl of the previously purified monoclonal antibodies (40-120 ng/ml) are incubated a) with 950 μl of a standard solution containing an increasing amount of triasulfurone or of triasulfurone analogs, b) with triasulfurone-containing water samples or c) with triasulfurone-containing soil extracts. [All dilutions are carried out in PBS Tween (0.1%)].
(§7) After an incubation period of 1 hour at room temperature (22° C.), 200 μl of the antigen/antibody mixture are added to each well in the microtitre plate and the whole batch is incubated for a further one hour. The wells are then washed five times with PBS Tween (0.1%) and charged with 100 μl/well of goat anti-mouse IgG antibody that is conjugated to alkaline phosphatase (dilution 1:1500), and incubated for a period of 1.5 hours.
(§8) After washing again, 150 μl/well of the substrate p-nitrophenyl phosphate dissolved in 1 mg/ml of diethanolamine buffer ([…], pH 9.8, enriched with 0.5 mM MgCl2 ×6H2 O) are added to the wells.
(§9) The intensity of the colour reaction that has occurred is determined at a wavelength of 405 nm. […] All the samples are determined in triplicate.
(§10) In order to determine the amount of triasulfurone present in a sample, first of all a calibration curve is produced (FIG. 1), B/Bo×100 being plotted against the concentration of inhibitor. (Bo represents the absorption capacity measured without the addition of a triasulfurone inhibitor to the antibody, and B is the absorption capacity when triasulfurone inhibitors at various concentrations are added). The I50 value indicates the concentration of the antigen at which the binding of antibody to the solid phase is inhibited by 50%. The I50 value is determined using an ENZFITTER (Leatherbarrow, Elsevier-Biosoft) curve-calculation program based on a four-parameter logistical curve (Raab GM, 1983) and specially adapted to the prevailing conditions. The quantitative determination of triasulfurone in soil or water samples within the context of ELISA is also carried out using the ENZFITTER program, the adaptation of the curve being based on standards that run on any microtitre plate.

The subject of assay [2] is MAb 4147-19-4. Briefly: competitive ELISA, triasulfurone and analogs with MAb 4147-19-4 (Table 1).
Text: as §1, §2, §3, §4, §5, §6, §7, §8, §9, §10

Assay [3] has as its system MAb 4149-1-1. As to the kind of experiment: competitive ELISA, triasulfurone and analogs with MAb 4149-1-1 (Table 1).
Text: as §1, §2, §3, §4, §5, §6, §7, §8, §9, §10

For the compound `CCS(=O)(=O)c1cccnc1S(=O)(=O)NC(=O)Nc1nc(OC)cc(OC)n1` [Q], the “I50 (inhibitor concentration that reduces the ELISA signal by 50% in comparison to the control)” value in assay [1], in assay [2] and in assay [3] was above 1000 ng/mL throughout. In addition, the Cross-reactivity is on record as below 0.7% in assay [1], below 0.01% in assay [2] and below 0.01% in assay [3].
Consider `CCCOC(=O)NS(=O)(=O)c1ccccc1OCCCl` [R], for which the “I50 (inhibitor concentration that reduces the ELISA signal by 50% in comparison to the control)” value in assay [1] amounted to 2.1 ng/mL; in assay [2], 1.9 ng/mL; in assay [3] it was 0.02 ng/mL. The Cross-reactivity in assay [1] was 342.9%; in assay [2] it was 4.7%; in assay [3], 250.00%.
With `NC(=O)NS(=O)(=O)c1ccccc1OCCCl` [S], the “I50 (inhibitor concentration that reduces the ELISA signal by 50% in comparison to the control)” value in assay [1] amounted to 6.0 ng/mL; in assay [2], 2.6 ng/mL; in assay [3], 0.02 ng/mL. Also, the figures for the Cross-reactivity in assay [1], in assay [2] and in assay [3] were 120.0%, 3.5% and 250.00%, respectively.
As to `CCN(CC)C(=O)NS(=O)(=O)c1ccccc1OCCCl` [T], the “I50 (inhibitor concentration that reduces the ELISA signal by 50% in comparison to the control)” value in assay [1] was 0.9 ng/mL; in assay [2] it was 17.6 ng/mL; in assay [3], 0.01 ng/mL. Further, the Cross-reactivity turned out to be 800.0% in assay [1], 0.5% in assay [2] and 500.00% in assay [3].
On to `COc1nc(C)nc(NC(=O)NS(=O)(=O)c2ccccc2OCCCl)n1` [triasulfurone, 3-(6-methoxy-4-methyl-1,3,5-triazin-2-yl)-1-[2-(2-chloroethoxy)-phenylsulfonyl]-urea], for which the “I50 (inhibitor concentration that reduces the ELISA signal by 50% in comparison to the control)” value in assay [1] was found to be 7.2 ng/mL; in assay [2], 0.09 ng/mL; in assay [3], 0.05 ng/mL. Moreover, the Cross-reactivity in assay [1], in assay [2] and in assay [3] was 100.0% throughout.
